What was measured:
[1] = In-vitro dissolution test, USP XXVIII paddle apparatus 2, 0.4% aqueous sodium dodecyl sulfate; assay type: physicochemical; conditions: approx. 1 mg estradiol valerate tested, 1000 mL 0.4% SDS, 37° C., 75 rpm
Method: Formulations according to the examples 1 to 4 were investigated in an in-vitro dissolution test according to USP XXVIII Paddle apparatus 2 using 1000 mL of an 0.4% aqueous solution of sodium dodecyl sulfate as dissolution medium to ensure sink condition (37° C., 75 rpm). The amount of formulations to be tested was selected so that the composition contains approx. 1 mg of estradiol valerate. As reference, 1 mg unformulated estradiol valerate was investigated.

[2] = Saturation concentration of estradiol valerate in solvent at room temperature; assay type: physicochemical
Method: The resulting liquid is mixed with 1000 g Aeroperl® 300 to give a powder with homogeneously absorbed liquid. 24 mg of the described stabilised supersaturated formulation contains 1 mg estradiol valerate. […] The resulting liquid is mixed with 1667 g Aeroperl® 300 to give a powder with homogeneously absorbed liquid. 67 mg of the described stabilised supersaturated formulation contains 1 mg estradiol valerate. […] The resulting liquid is mixed with 1000 g Aeroperl® 300 to give a powder with homogeneously absorbed liquid. 44 mg of the described stabilised supersaturated formulation contains 1 mg estradiol valerate.

Release estradiol valerate, 3 min ([1]; 3 min): 0.34 mg
Release estradiol valerate, 6 min ([1]; 6 min): 0.41 mg
Release estradiol valerate, 10 min ([1]; 10 min): 0.47 mg
Release estradiol valerate, 15 min ([1]; 15 min): 0.67 mg
Release estradiol valerate, 30 min ([1]; 30 min): 0.76 mg
saturation concentration ([2]; in medium chain triglycerides (MCT) at room temperature): approx. 27 g/L
saturation concentration ([2]; in peanut oil at room temperature): approx. 30 g/L
saturation concentration ([2]; in polyethylene glycol (PEG) 400 at room temperature): approx. 50 g/L
SMILES: CCCCC(=O)O[C@H]1CC[C@H]2[C@@H]3CCc4cc(O)ccc4[C@H]3CC[C@]12C [estradiol valerate]
